{
  "source": "patent US9944607B2",
  "about": "“Thiohydantoin derivatives and uses thereof” (Whitehead Institute for Biomedical Research, priority 2012, dated 2018)",
  "key": {"[1]": {"assay": "Solubility in PBS pH 7.4 with 1% DMSO", "conditions": "for solubility at 24 h: pH 7.4, aqueous buffer, kinetic from dmso stock; for PBS Solubility: PBS pH 7.4 with 1% DMSO, 24 hours, room temperature", "method_in_brief": "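Compounds at 100 μM in duplicate in PBS pH 7.4 containing 1% DMSO, shaken 24 hours at room temperature. Concentration measured by UPLC-MS with SIR detection, fitted to a two-point calibration from matching 100% DMSO samples.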"}, "[2]": {"system": "C. glabrata (ATCC 2001)", "assay": "Secondary C. glabrata inhibition in glucose media (OD600)", "type": "cell-based, Candida glabrata", "conditions": "Nakaseomyces glabratus", "description": "(§1) Cell Lines. • Candida albicans CaCi-2; a drug-resistant clinical isolate was provided by the Whitehead Institute (Redding et al., Clin. Infect. Dis. 1994, 18(2):240-2). This strain was used for the primary assay. • Candida albicans CaCi-17; a strongly drug-resistant clinical isolate was provided by the Whitehead Institute (Redding et al., Clin. Infect. Dis. 1994, 18(2):240-2). This strain was used for the primary assay • Saccharyomyces cerevisiae W303-1a (ATCC 208352); a well-characterized Saccharomyces strain used for determination of glycolytic vs. respiratory metabolism, as well as in the mitochondrial disruption assay. • Candida glabrata (ATCC 2001); used for determination of glycolytic vs. respiratory metabolism. • NIH-3T3 mammalian fibroblasts (ATCC; CRL no.1658); used for mammalian toxicity assays. […]\n(§2) Saccharomyces, while not a major human pathogen, is a useful lab model with well-developed genetic tools available. Candida glabrata is an increasingly prominent clinical problem for immune-compromised patients but with fewer genetic tools available with which to study it. These organisms can utilize alternative metabolic pathways to support growth and survival depending on the carbon source. By comparing the concentration-dependent inhibition of yeast growth in glycerol relative to glucose media, a quantitative assessment of a compound's ability to disrupt respiration can be determined. […].\n(§3) Procedures • Use a Thermo Combi nL to dispense 20 μL/well of assay media into all wells. • Add 2 μL of Amphotericin B to control wells. • Pin 100 nL of test compound from compound plates into assay plates using a CyBi-Well pin tool. • Dispense 20 μL/well of culture into the assay media in all wells. • Incubate the plates in a humidified (90% humidity) Liconic incubator at 37° C. without agitation for 48 hours. • Shake plates briefly. • Read OD600 of wells on a standard plate reader as measure of relative fungal growth. Envision (Perkin Elmer) plate reader settings: Ex Photometric 600, Top read. Secondary Glucose Assay Protocol (AID 623971, 623967, 624013, 624025) Materials and Reagents\n(§4) Clear, flat bottom, black 384-well plates (Corning, Catalog No. 3712BC; Lot No. 35808016); Amphotericin B (Sigma, Catalog no. A2411) 15 mM stock solution in DMSO; Pen/Strep (Gibco, Catalog No. 10378-016; Lot no21040170) 100× in PBS.\n(§5) Synthetic defined growth medium. Complete Supplement Mixture; (Sunrise Science, Catalog No. 1001-100); Yeast Nitrogen Base without ammonium sulfate (MP Biomedicals, Catalog No. 4027-012); Glucose (Sigma, Catalog No. G7021). • Prepare medium by dissolving 0.79 g of Complete Supplement Mixture and 1.7 g of Yeast Nitrogen Base in 800 mL of water. • Add 20 g of glucose. Adjust final volume to 1000 mL. Filter sterilize.\n(§6) Fungal Inoculum. Test Strains: C. glabrata (ATCC 2001) and Saccharomyces cerevisiae W303. • Inoculate 100 L of yeast from cryopreserved stock into a 250 mL shaker flask containing 20 mL of growth medium. Shake at 30° C. overnight (about 16 hours). • Read OD 600 of 1 mL of fungal culture in a cuvette using a standard optical density reader (Eppendorf BioPhotometer Plus), with growth medium as a background blank. • Dilute to desired volume of fungal inoculum to produce an OD600 reading of 0.005 (S. cerevisiae) or 0.004 (C. glabrata).\nas §3, with “read. 4.5.” for “read.”, “Mitochondrial Disruption” for “Glucose”, “Assay” for “Assay Protocol”, “No. 624062” for “623971, 623967, 624013, 624025) Materials”, “624068)” for “Reagents”"}, "[3]": {"system": "Candida albicans CaCi-17", "assay": "Primary assay: C. albicans CaCi-17 growth inhibition (Alamar Blue)", "type": "cell-based", "conditions": "for IC50: Candida albicans"}, "[4]": {"system": "Saccharomyces cerevisiae W303", "assay": "Secondary S. cerevisiae inhibition in glucose media (OD600)", "type": "cell-based", "conditions": "Saccharomyces cerevisiae", "description": "as §1, §2, §3, §4, §5, §6\nas §3, with “read. 4.5.” for “read.”, “Mitochondrial Disruption” for “Glucose”, “Assay” for “Assay Protocol”, “No. 624062” for “623971, 623967, 624013, 624025) Materials”, “624068)” for “Reagents”"}, "[5]": {"system": "Saccharomyces cerevisiae W303", "assay": "Secondary S. cerevisiae inhibition in glycerol media (OD600)", "type": "cell-based", "conditions": "for IC50: Saccharomyces cerevisiae", "description": "as §1, §2\nClear, flat bottom, black 384-well plates (Corning Catalog no. 3712BC; Lot no. 35808016); Amphotericin B (Sigma Catalog no. A2411) 15 mM stock solution in DMSO; Pen/Strep (Gibco Catalog no. 10378-016; Lot no21040170) 100× in PBS.\nas §5, with “4027-012); Glycerol (Sigma” for “4027-012); Glucose (Sigma,”, “No. G-9012).” for “No. G7021).”, “g” for “g of”, “mL” for “mL of”, “20 mL” for “20 g”, “of glycerol.” for “of glucose.”\nas §6, with “Inoculate 100 μL of yeast” for “Inoculate 100 L of yeast”, “stock into 250 mL” for “stock into a 250 mL”, “20 mL growth medium.” for “20 mL of growth medium.”\nas §3"}, "[6]": {"conditions": "phosphate buffered saline with 1% DMSO"}},
  "note": "Read-outs that look alike come from different tables or passages of the source.",
  "data": [
    {"smiles": "CCOC(=O)N1C(=O)C2(CCCCC2)N(c2ccc(F)cc2)C1=S", "note": "[CID 56604860, Ethyl 1-(4-fluorophenyl)-4-oxo-2-thioxo-1,3-diazaspiro[4.5]decane-3-carboxylate]", "values": [
      {"measurement": "solubility at 24 h", "setting": "[1]; [6]", "result": 1.1, "unit": "µM"},
      {"measurement": "IC50", "setting": "[2]; ATCC2001, read-out: Growth inhibition of C. glabrata on glucose IC50", "result": "> 3", "unit": "µM"},
      {"measurement": "IC50", "setting": "[3]; CACI17, read-out: C. albicans CaCi-17 growth inhibition IC50", "result": 1, "unit": "µM"},
      {"measurement": "Fold Selective (Anti-target IC50/Target IC50), fibroblast toxicity vs CaCi-17 growth inhibition", "setting": "[3]; Table 12", "result": ">37", "unit": "x"},
      {"measurement": "IC50", "setting": "[4]; W303, read-out: Growth inhibition of S. cerevisiae on glucose IC50", "result": "> 3", "unit": "µM"},
      {"measurement": "Reduction in potency when glucose is available instead of glycerol, S. cerevisiae", "setting": "[5]", "result": "greater than 250 fold"},
      {"measurement": "IC50", "setting": "[5]; W303, read-out: Growth inhibition of S. cerevisiae on glycerol IC50", "result": 0.004, "unit": "µM"},
      {"measurement": "Fold Selective (Glucose IC50/Glycerol IC50), S. cerevisiae", "setting": "[5]; Table 13", "result": ">750", "unit": "x"}
    ]},
    {"smiles": "CCOC(=O)N1C(=O)C2(CCCCC2)N(c2ccc(C)cc2)C1=S", "note": "[compound 3889161]", "values": [
      {"measurement": "PBS Solubility", "setting": "[1]; Table 4", "result": "<1.0", "unit": "µM"},
      {"measurement": "PBS Solubility", "setting": "[1]; Table 5", "result": "<1.0", "unit": "µM"},
      {"measurement": "PBS Solubility", "setting": "[1]; Table 6", "result": "<1.0", "unit": "µM"},
      {"measurement": "PBS Solubility", "setting": "[1]; Table 7", "result": "<1.0", "unit": "µM"},
      {"measurement": "solubility at 24 h", "setting": "[1]; [6]", "result": "< 1", "unit": "µM"},
      {"measurement": "IC50", "setting": "[2]; ATCC2001, 48 h, read-out: Growth Inhibition Activity, IC50 (μM), C. glabrata (n = 3) On glucose", "result": "> 3", "unit": "µM"},
      {"measurement": "IC50", "setting": "[3]; CACI17, 48 h, read-out: Growth Inhibition Activity, IC50 (μM), C. albicans (n = 3) CaCi-17", "result": 8.5, "unit": "µM"},
      {"measurement": "IC50", "setting": "[4]; W303, 48 h, read-out: Growth Inhibition Activity, IC50 (μM), S. cerevisiae (n = 3) On glucose", "result": "> 3", "unit": "µM"},
      {"measurement": "IC50", "setting": "[5]; W303, 48 h, read-out: Growth Inhibition Activity, IC50 (μM), S. cerevisiae (n = 3) On glycerol", "result": 0.011, "unit": "µM"}
    ]},
    {"smiles": "CCOC(=O)N1C(=O)C2(CCCCC2)N(c2cccc(C)c2)C1=S", "note": "[compound 56604823]", "values": [
      {"measurement": "solubility at 24 h", "setting": "[1]; [6]", "result": 2.6, "unit": "µM"},
      {"measurement": "IC50", "setting": "[2]; ATCC2001, Table 8, n = 3, glucose media, 48 hours, tested up to 3 μM, read-out: Growth Inhibition Activity, IC50 (μM), C. glabrata (n = 3) On glucose", "result": "> 3", "unit": "µM"},
      {"measurement": "IC50", "setting": "[3]; CACI17, Table 4, n = 3, 48 hours, tested up to 26 μM, read-out: Growth Inhibition Activity, IC50 (μM), C. albicans (n = 3) CaCi-17", "result": 8.2, "unit": "µM"},
      {"measurement": "IC50", "setting": "[4]; W303, Table 8, n = 3, glucose media, 48 hours, tested up to 3 μM, read-out: Growth Inhibition Activity, IC50 (μM), S. cerevisiae (n = 3) On glucose", "result": "> 3", "unit": "µM"},
      {"measurement": "IC50", "setting": "[5]; W303, Table 8, n = 3, glycerol media, 48 hours, tested up to 3 μM, read-out: Growth Inhibition Activity, IC50 (μM), S. cerevisiae (n = 3) On glycerol", "result": 0.019, "unit": "µM"}
    ]},
    {"smiles": "C/C=C/C1[C@H]2C[C@@H](C)CC[C@@H]2C(C)=C[C@H]1C(=O)c1c(O)c(-c2ccc(O)cc2)c[nH]c1=O", "note": "(stereo partly drawn) [ilicicolin H, reference compound]", "values": [
      {"measurement": "solubility at 24 h", "setting": "[1]", "result": "< 1", "unit": "µM"},
      {"measurement": "IC50", "setting": "[2]; ATCC2001, figure legends and Tables 9, 10, 13, AID 623967, read-out: Growth inhibition of C. glabrata on glucose IC50", "result": "> 3", "unit": "µM"},
      {"measurement": "IC50", "setting": "[3]; CACI17, Tables 9, 10, 12, AID 623897, read-out: C. albicans CaCi-17 growth inhibition IC50", "result": "> 3", "unit": "µM"},
      {"measurement": "IC50", "setting": "[4]; W303, figure legends and Tables 9, 10, 13, AID 623971, read-out: Growth inhibition of S. cerevisiae on glucose IC50", "result": "> 3", "unit": "µM"},
      {"measurement": "IC50", "setting": "[5]; W303, figure legends and Tables 9, 10, 13, AID 623969, read-out: Growth inhibition of S. cerevisiae on glycerol IC50", "result": 0.03, "unit": "µM"}
    ]}
  ]
}
